Test [1] has as its target Protein farnesyltransferase (Homo sapiens, UniProt P49354+P49356). Description: Inhibition of human farnesyltransferase. Format: protein-complex assay.
Test [2] deals with Protein farnesyltransferase (Rattus norvegicus, UniProt Q02293+Q04631). Description: Inhibition of cellular reversion in H-ras transformed Rat-1 cells. Format: functional, cell-based.
Test [3] addresses T1, Protein farnesyltransferase (Rattus norvegicus) (UniProt Q04631+Q02293). Description: Percentage cellular reversion of H-ras transformed Rat-1 cells at 100 nM. Format: functional, cell-based.
For test [4], the target named is T1, Protein farnesyltransferase (Rattus norvegicus). Description: Percentage cellular reversion in H-ras transformed Rat-1 cells at 1 uM. Format: functional, cell-based.
The target is the same in test [5]. Description: Percentage cellular reversion in H-ras transformed Rat-1 cells at 10 uM. It is filed as functional, cell-based.

In ChEMBL document CHEMBL1143508, “Design, synthesis, and structure-activity relationships of tetrahydroquinoline-based farnesyltransferase inhibitors” (Bioorg Med Chem Lett, 2005) one finds IC50 and Cellular reversion data, which are given here for 29 compounds.

On to `C=C(C)CN(C1Cc2cc(C#N)ccc2N(Cc2cncn2C)C1)S(=O)(=O)c1cn(C)cn1` (stereo not given), for which the 50% inhibitory concentration (IC50) – broadly, the point on the concentration scale where inhibition reaches its midpoint – in test [1] turned out to be 0.3 nM; in test [2], 50 nM. Moreover, in test [3], the Cellular reversion is 80%.

`Cn1cnc(S(=O)(=O)N(CC(=O)OC(C)(C)C)C2Cc3cc(C#N)ccc3N(Cc3cncn3C)C2)c1` (stereo not given): the IC50 came to 0.6 nM in test [1] and 30 nM in test [2]. The Cellular reversion in test [3] was 90%.

As for `CN(C1Cc2cc(C#N)ccc2N(Cc2cncn2C)C1)S(=O)(=O)c1ccccc1` (stereo not given), the half-maximal inhibitory concentration (IC50) in test [1] was found to be 3.5 nM. This compound also yielded a Cellular reversion in test [3] of 45%.

In the case of `Cn1cnc(S(=O)(=O)N(Cc2ccsc2)C2Cc3cc(C#N)ccc3N(Cc3cncn3C)C2)c1` (stereo not given), the Cellular reversion in test [3] worked out at 65%.

In the case of `Cn1cnc(S(=O)(=O)N(Cc2ccccc2)C2Cc3cc(C#N)ccc3N(Cc3cncn3C)C2)c1` (stereo not given), in test [1], the IC50 came to 1.1 nM. The compound further came in with a Cellular reversion in test [3] of 75%.

Consider `Cn1cncc1CN1CC(N(CC(=O)OC(C)(C)C)S(=O)(=O)c2cccnc2)Cc2cc(C#N)ccc21` (stereo not given), for which the half-inhibitory concentration (IC50) in test [1] stood at 3.9 nM; in test [2] it was 225 nM. For the same compound, the Cellular reversion in test [3] is 30%.

On to `Cn1cncc1CN1C[C@H](N(Cc2ccsc2)S(=O)(=O)c2ccccc2)Cc2cc(C#N)ccc21`, for which the IC50 in test [1] came to 2.8 nM. Further, the Cellular reversion in test [3] was 80%.

In test [1], `Cn1cncc1CN1CC(N(Cc2ccccc2)S(=O)(=O)c2ccccc2)Cc2cc(C#N)ccc21` (stereo not given) returned a half-maximal inhibitory concentration (IC50) of 3 nM. The Cellular reversion in test [3] is 85%.

The compound `C=C(C)CN(C1Cc2cc(C#N)ccc2N(Cc2cncn2C)C1)S(=O)(=O)c1ccccc1` (stereo not given) had an IC50 in test [1] of 0.9 nM. The compound also registered a Cellular reversion in test [3] of 95%.

In the case of `C=C(C)CN(C1Cc2cc(C#N)ccc2N(Cc2cncn2C)C1)S(=O)(=O)c1ccccn1` (stereo not given), the results for the IC50 in test [1] and in test [2] were 0.9 nM and 60 nM, respectively. Besides, the Cellular reversion in test [3] was determined as 85%.

Regarding `Cn1cncc1CN1CC(N(Cc2ccsc2)S(=O)(=O)c2cccnc2)Cc2cc(C#N)ccc21` (stereo not given), in test [1], the concentration for half-maximal inhibition (IC50) was 0.9 nM. This compound had a Cellular reversion in test [3] of 85%.

As for `Cn1cncc1CN1CC(N(Cc2ccccc2)S(=O)(=O)c2cccnc2)Cc2cc(C#N)ccc21` (stereo not given), the results for the IC50 in test [1] and in test [2] were 0.9 nM and 70 nM, respectively. In addition, the Cellular reversion in test [3] stood at 85%.

`Cn1cncc1CN1CC(N(Cc2ccccc2)S(=O)(=O)c2ccccn2)Cc2cc(C#N)ccc21` (stereo not given): the IC50 in test [1] is 2.6 nM; in test [2], below 20 nM. For the same compound, the Cellular reversion in test [3] amounted to 90%.

Turning to `Cn1cncc1CN1CC(N(CCc2ccccc2)S(=O)(=O)c2ccccc2)Cc2cc(C#N)ccc21` (stereo not given), the IC50 in test [1] was above 5000 nM. Also, the Cellular reversion in test [3] turned out to be 0%.

Regarding `CN(C1Cc2cc(C#N)ccc2N(Cc2cncn2C)C1)S(=O)(=O)c1cccnc1` (stereo not given), the Cellular reversion in test [4] was 10%; in test [3], 0%. In test [1], the IC50 came to 17 nM.

For `C=C(C)CN(C1Cc2cc(C#N)ccc2N(Cc2cncn2C)C1)S(C)(=O)=O` (stereo not given), the IC50 came to 0.8 nM in test [1] and 8 nM in test [2]. The same compound displayed a Cellular reversion in test [3] of 90%.

For `Cn1cncc1CN1CC(NS(=O)(=O)c2ccccc2)Cc2cc(C#N)ccc21` (stereo not given), in test [1], the IC50 was 10 nM. In addition, the figures for the Cellular reversion in test [5] and in test [3] were 30% and 0%, respectively.

For the compound `Cn1cncc1CN1C[C@@H](N(Cc2ccsc2)S(=O)(=O)c2ccccc2)Cc2cc(C#N)ccc21`, inhibition in test [1] was half-maximal at 1.1 nM (IC50). Besides, the Cellular reversion in test [3] stood at 85%.

Consider `Cn1cncc1CN1CC(N(CC2CCCCC2)S(=O)(=O)c2ccccc2)Cc2cc(C#N)ccc21` (stereo not given), for which the Cellular reversion in test [4] turned out to be 90%; in test [3], 0%. In test [1], this compound returned a half-inhibitory concentration (IC50) of 48 nM.

With `Cn1cncc1CN1CC(N(Cc2ccsc2)S(=O)(=O)c2ccccc2)Cc2cc(C#N)ccc21` (racemic), 2.5 nM corresponded to half-maximal inhibition in test [1] (IC50). This compound yielded a Cellular reversion in test [3] of 90%.

For the compound `Cn1cncc1CN1CC(N(Cc2ccccc2)S(C)(=O)=O)Cc2cc(C#N)ccc21` (stereo not given), the figures for the Cellular reversion in test [4] and in test [3] were 85% and 0%, respectively. This compound gave a concentration for half-maximal inhibition (IC50) in test [1] of 2.8 nM.

For `CN(C1Cc2cc(C#N)ccc2N(Cc2cncn2C)C1)S(=O)(=O)c1ccccn1` (stereo not given), the Cellular reversion in test [4] was 85%; in test [3] it was 0%. In test [1], inhibition was half-maximal at 3.1 nM (IC50).

For `C=C(C)CN(C1Cc2cc(C#N)ccc2N(Cc2cncn2C)C1)S(=O)(=O)c1cccnc1` (stereo not given), the IC50 stood at 1.2 nM in test [1] and 100 nM in test [2]. This compound also had a Cellular reversion in test [3] of 70%.

As for `Cn1cncc1CN1CC(N(CC(=O)OC(C)(C)C)S(=O)(=O)c2ccccn2)Cc2cc(C#N)ccc21` (stereo not given), 10 nM corresponded to half-maximal inhibition in test [2] (IC50). In test [3], this compound gave a Cellular reversion of 85%.

`Cn1cc(S(=O)(=O)N(Cc2ccccc2)C2Cc3cc(C#N)ccc3N(Cc3cncn3C)C2)cn1` (stereo not given) yielded an IC50 in test [1] of 4.6 nM. In test [3], this compound displayed a Cellular reversion of 75%.

For `CN(C1Cc2cc(C#N)ccc2N(Cc2cncn2C)C1)S(=O)(=O)c1cnn(C)c1` (stereo not given), the Cellular reversion was 25% in test [4] and 0% in test [3]. For the same compound, the half-inhibitory concentration (IC50) in test [1] is 7.6 nM.

Take `Cn1cc(S(=O)(=O)N(Cc2ccsc2)C2Cc3cc(C#N)ccc3N(Cc3cncn3C)C2)cn1` (stereo not given): the Cellular reversion in test [3] stood at 95%.

In test [1], `Cn1cncc1CN1CC(N(CC(=O)OC(C)(C)C)S(=O)(=O)c2ccccc2)Cc2cc(C#N)ccc21` (stereo not given) registered an IC50 of 4 nM. In test [3], the Cellular reversion was found to be 75%.

Regarding `Cn1cncc1CN1CC(N(Cc2ccsc2)S(=O)(=O)c2ccccn2)Cc2cc(C#N)ccc21` (stereo not given), half-maximal inhibition in test [2] (IC50) was put at 13 nM. For the same compound, the Cellular reversion in test [3] is 95%.
